Results: ChEMBL document CHEMBL4627301, “Discovery of novel hydroxyamidine derivatives as indoleamine 2,3-dioxygenase 1 inhibitors with in vivo anti-tumor efficacy” (Bioorg Med Chem Lett, 2020)
The source made the active and inactive calls. No cut-off for these calls is given here.

Columns and labels:
[1] = biological target: T1, Indoleamine 2,3-dioxygenase 1 (Homo sapiens, UniProt P14902); assay: Inhibition of IDO1 (unknown origin) assessed as reduction in kynurenine formation using L-tryptophan as substrate incubated for 60 mins by fluorescence based assay
T1 sequence (P14902 whole entry): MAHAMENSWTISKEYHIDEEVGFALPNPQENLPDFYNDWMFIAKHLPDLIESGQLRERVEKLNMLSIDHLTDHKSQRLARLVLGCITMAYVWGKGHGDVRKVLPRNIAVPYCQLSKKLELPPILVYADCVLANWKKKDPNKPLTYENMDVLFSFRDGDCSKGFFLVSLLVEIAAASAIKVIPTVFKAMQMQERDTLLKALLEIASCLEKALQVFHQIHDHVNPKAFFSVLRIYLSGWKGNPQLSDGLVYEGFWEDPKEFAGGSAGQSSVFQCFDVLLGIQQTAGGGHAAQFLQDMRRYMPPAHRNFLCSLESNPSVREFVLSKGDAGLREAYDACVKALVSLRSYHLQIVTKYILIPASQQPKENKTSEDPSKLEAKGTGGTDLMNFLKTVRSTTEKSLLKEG

[2] = biological target: T1, Indoleamine 2,3-dioxygenase 1; assay: Inhibition of IDO1 in IFN-gamma stimulated human HeLa cells assessed as reduction in kynurenine formation using L-tryptophan as substrate incubated for 24 hrs by UV-spectrophotometry; assay type: cell-based
[3] = tested on: Lewis lung carcinoma cell line; assay: Antitumor activity against mouse LLC cells xenografted in C57BL/6 mouse assessed as tumor growth inhibition at 100 mg/kg, po administered bid for 14 days and measured for 14 days; assay type: functional, organism-based
[4] = Toxicity in C57BL/6 mouse xenografted with mouse LLC cells assessed as body weight loss at 100 mg/kg, po administered bid for 14 days and measured for 14 days; assay type: organism-based, Lewis lung carcinoma; settings: in vivo, 336 h

Row | Structure (SMILES) | IC50 [1] [nM] | EC50 [2] [nM] | TGI [3] | Activity [4]
1 | NS(=O)(=O)NNc1nonc1/C(=N/O)Nc1ccc(F)c(Br)c1 | 218 | 101 | – | –
2 | NS(=O)(=O)CCCNc1nonc1/C(=N/O)Nc1ccc(F)c(Br)c1 | 126 | 15 | – | –
3 | N#CN=S1CC(Nc2nonc2/C(=N/O)Nc2ccc(F)c(Br)c2)C1 (stereo unspecified) | 69 | 73 | – | –
4 | O=S(=O)(CCNc1nonc1/C(=N/O)Nc1ccc(F)c(Br)c1)NCC1CC1 | 312 | 268 | – | –
5 | N=S1(=O)CC(Nc2nonc2/C(=N/O)Nc2ccc(F)c(Br)c2)C1 (stereo unspecified) | 208 | 53 | – | –
6 | NS(=O)(=O)CCNc1nonc1/C(=N/O)Nc1ccc(F)c(Br)c1 | 71 | 11 | Active | Non-Toxic
7 | [O-][S+]1CC(Nc2nonc2/C(=N/O)Nc2ccc(F)c(Br)c2)C1 (stereo unspecified) | 212 | 79 | – | –
8 | NNS(=O)(=O)CCNc1nonc1/C(=N/O)Nc1ccc(F)c(Br)c1 | 135 | > 800 | – | –
9 | O=S1(=O)CC(Nc2nonc2/C(=N/O)Nc2ccc(F)c(Br)c2)C1 | 99 | 59 | – | –
10 | O=S(=O)(CCNc1nonc1/C(=N/O)Nc1ccc(F)c(Br)c1)N1CCC1 | 191 | 143 | – | –
11 | O=S(=O)(CCNc1nonc1/C(=N/O)Nc1ccc(F)c(Br)c1)NO | 126 | > 800 | – | –
12 | CN(C)S(=O)(=O)CCNc1nonc1/C(=N/O)Nc1ccc(F)c(Br)c1 | 105 | 17 | – | –
13 | NS(=O)(=O)NCCNc1nonc1/C(=N/O)Nc1ccc(F)c(Br)c1 | – | – | Active | –
14 | NS(=O)(=O)CCONc1nonc1/C(=N/O)Nc1ccc(F)c(Br)c1 | 87 | 27 | – | –
15 | NNc1nonc1/C(=N/O)Nc1ccc(F)c(Br)c1 | 108 | 556 | – | –
16 | O=S(=O)(CCNc1nonc1/C(=N/O)Nc1ccc(F)c(Br)c1)NCC(F)(F)F | 140 | 268 | – | –
17 | CCNS(=O)(=O)CCNc1nonc1/C(=N/O)Nc1ccc(F)c(Br)c1 | 95 | 41 | – | –
18 | CN(C)S(=O)(=O)CCCNc1nonc1/C(=N/O)Nc1ccc(F)c(Br)c1 | 97 | 20 | – | –
19 | CS(=O)(=O)NNc1nonc1/C(=N/O)Nc1ccc(F)c(Br)c1 | 609 | > 800 | – | –
20 | C#CCNS(=O)(=O)CCNc1nonc1/C(=N/O)Nc1ccc(F)c(Br)c1 | 218 | 33 | – | –
